Experimental data: US8883801B2, “Substituted pyrazolo[1,5-a]pyrimidines as mTOR inhibitors” (Merck Sharp & Dohme Corp., priority 2010, dated 2014)
Like-named read-outs stand apart in the source and are kept apart here.

Experiments:
human mTOR enzyme = human mTOR enzyme (Homo sapiens, UniProt P42345); assay: HTRF mTOR enzyme (kinase) assay; format: biochemical; settings: 5 μM ATP, 0.2 μM GST-S6K, read-out: hMTOR IC50
Method: Methods: An HTRF mTOR enzyme assay was developed to assess the compounds' inhibitory activity. The mTOR assay buffer contained 10 mM Hepes (pH 7.4), 50 mM NaCl, […] BSA, 50 mM […], 10 mM MnCl2 and 0.5 mM DTT. […] 20 ng of human mTOR enzyme (<5% pure was preincubated with the compound for 10 minutes followed by the addition of 5 μM ATP and 0.2 μM GST-S6K (Zhang et al., Protein Expression and Purification 46, pp 414-420 (2006)). The reaction was incubated for one hour at 30° C. Anti phospho p70-S6K(Thr389) (˜1.7 ng/well, anti-phospho-p70S6K-cryptate (Pho-p70S6-Kin-K cat#64CUSKAY, from Cisbio)) and anti GST-XL665 (1:1 Ratio with the substrate GST-S6K, anti GST-XL665, cat#61GSTXLB) Cisbio) were added after the reaction was stopped. The plates were read (PHERAstar, BMG) at least 2 hours after adding the anti phospho p70-S6K and the anti GST-XL665.
IC50 DETERMINATIONS: Dose-response curves were plotted from the inhibition data generated, each in duplicate, from 8 point serial dilutions of inhibitory compounds. Concentration of compound was plotted against the HTRF em665/em590 ratio signal. To generate IC50 values, the dose-response curves were fitted to a standard sigmoidal curve and IC50 values were derived by nonlinear regression analysis.

[1] = test system: mTORC2 activity: phosphorylated AKT Ser473 (pAKT S473) in PC3 cells; assay: mTOR target engagement assay, immunofluorescent cell-based, mTORC2 readout; settings: Homo sapiens, PC-3, 1.5 h, 90 min treatment
Method: The target engagement of mTOR kinase inhibitors was evaluated using an immunofluorescent cell-based assay. In this assay, inhibition of mTORC1 activity was measured by the reduction in the level of phosphorylated 4E-BP1Thr37/46 (p4E-BP1 Thr37/46), and inhibition of mTORC2 activity was measured by the reduction of phosphorylated AKTSer473 (pAKT S473).
PC3 cells (prostate tumor cell-line that contains a mutation in the tumor suppressor PTEN, that promotes the phosphorylation and activation of AKT and 4E-BP1) were used in the immunofluorescence assay. PC3 cells were seeded on 384 well plates (black clear bottom, Matrix #4332) overnight. PC3 cells were then treated with 40 μl of the serially diluted test compounds (in 5% fetal bovine serum, F12 medium containing 0.25% DMSO) for ninety minutes at 37° C. The test compound solution was removed, and the plates were washed gently two times with 25 μl phosphate buffered saline (PBS). The cells were fixed by adding 25 μl of Prefer reagent (from Anatech LTD, Cat#414, a glyoxal fixative for fixing proteins within a cell) for sixty minutes followed by three washes with PBS. 5% Goat serum in PBS/0.3% Triton was used to block non-specific binding (60 minutes).
The primary antibodies targeting pAKT S473 and p4E-BP1 Thr37/46 were diluted into PBS/0.3% Triton and incubated with the cells overnight at 4° C. The antibodies targeting pAKTS473 (Cat#4085, Cell signaling) and p4E-BP1 Thr37/46 (Cat#2855, Cell signaling) were used at a 1:100 dilution. Plates were washed three times with PBS/0.1% Tween 20 before adding the secondary antibody at a 1:200 dilution. (goat anti-rabbit containing a fluorescent label, Alexa Fluor 488, Cat#A11008, Invitrogen) in PBS/0.3% Triton for 60 minutes.
Finally, the plates were washed three times with PBS/0.1% Tween 20 and the fluorescent intensity was read using an Analyst HT from Molecular Devices. The fluorescent intensity values from the serially diluted compound treatment group were analyzed using the Xlfit 4 program ([…]) (Formula 205: Y=Bottom+(Top-Bottom)/(1+(IC50/X)^Hillslope) to generate the IC50 value. Where Top is the maximum signal without Compound (+DMSO only) and Bottom represents maximum inhibition. Y is the fluorescence at some compound concentration. The control used to determine the fluorescent intensities for 100% pAKT S473 or 100% phosphorylated p4E-BP1 Thr37/46 were measured from untreated wells that contained only DMSO, instead of test compound.

Chain of human mTOR enzyme (P42345 1360-2549 limits assumed): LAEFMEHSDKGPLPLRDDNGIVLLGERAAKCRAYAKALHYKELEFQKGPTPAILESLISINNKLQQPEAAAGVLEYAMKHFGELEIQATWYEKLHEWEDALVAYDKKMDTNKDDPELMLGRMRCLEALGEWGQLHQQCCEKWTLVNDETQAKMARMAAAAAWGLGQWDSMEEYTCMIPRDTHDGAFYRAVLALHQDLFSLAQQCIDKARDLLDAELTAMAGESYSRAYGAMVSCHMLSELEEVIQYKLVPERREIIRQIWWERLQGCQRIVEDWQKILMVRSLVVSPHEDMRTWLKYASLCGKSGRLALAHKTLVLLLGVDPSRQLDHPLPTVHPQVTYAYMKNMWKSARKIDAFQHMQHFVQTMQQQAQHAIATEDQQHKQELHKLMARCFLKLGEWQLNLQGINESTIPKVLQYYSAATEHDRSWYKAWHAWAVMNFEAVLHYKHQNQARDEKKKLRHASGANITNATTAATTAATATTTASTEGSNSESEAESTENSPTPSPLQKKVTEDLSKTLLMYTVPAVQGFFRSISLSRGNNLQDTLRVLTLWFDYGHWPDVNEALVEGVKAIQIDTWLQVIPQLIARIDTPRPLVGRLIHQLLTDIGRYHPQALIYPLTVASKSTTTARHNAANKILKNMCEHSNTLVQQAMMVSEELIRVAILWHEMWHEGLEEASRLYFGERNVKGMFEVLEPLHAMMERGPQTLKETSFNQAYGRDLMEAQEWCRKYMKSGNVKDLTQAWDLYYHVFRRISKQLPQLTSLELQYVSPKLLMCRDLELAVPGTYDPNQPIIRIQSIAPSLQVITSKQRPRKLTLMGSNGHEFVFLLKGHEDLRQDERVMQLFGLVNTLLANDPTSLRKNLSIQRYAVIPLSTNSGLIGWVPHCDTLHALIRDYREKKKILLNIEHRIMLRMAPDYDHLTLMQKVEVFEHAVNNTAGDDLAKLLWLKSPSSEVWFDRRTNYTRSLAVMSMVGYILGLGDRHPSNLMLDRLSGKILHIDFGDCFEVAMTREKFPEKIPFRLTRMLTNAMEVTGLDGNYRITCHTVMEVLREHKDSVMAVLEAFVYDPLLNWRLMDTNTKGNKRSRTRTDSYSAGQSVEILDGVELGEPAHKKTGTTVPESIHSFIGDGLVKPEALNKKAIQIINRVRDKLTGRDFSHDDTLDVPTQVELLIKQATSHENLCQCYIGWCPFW

IC50 (human mTOR enzyme; rated class) [nM] | IC50 ([1]; rated class) [nM] | IC50 (human mTOR enzyme; numeric value) [nM] | IC50 ([1]; numeric value) [nM] | Compound
1 to 100 | 100 to 1000 | – | – | COCCOCC1(C(=O)O)CCC(c2nc3c(-c4ccc(-c5ccccc5)nc4)cnn3c(N)c2C(C)=O)CC1 (centres unmarked) [Compound 24, 4-(6-acetyl-7-amino-3-(6-phenylpyridin-3-yl)pyrazolo[1,5-a]pyrimidin-5-yl)-1-((2-methoxyethoxy)methyl)cyclohexane-carboxylic acid]
1 to 100 | 2000 to 5000 | – | – | CS(=O)(=O)C1(C(=O)O)CCC(c2nc3c(-c4cnn(-c5ccccc5)c4)cnn3c(N)c2Br)CC1 (centres unmarked) [Compound 27, 4-(7-amino-6-bromo-3-(1-phenyl-1H-pyrazol-4-yl)pyrazolo[1,5-a]pyrimidin-5-yl)-1-(methylsulfonyl)cyclohexanecarboxylic acid]
1 to 100 | 100 to 1000 | – | – | CO[C@]1(C(=O)O)CC[C@H](c2nc3c(-c4cnc5ccc(F)cc5c4)cnn3c(N)c2Br)CC1 [Compound 32, (1S,4S)-4-(7-amino-6-bromo-3-(6-fluoroquinolin-3-yl)pyrazolo[1,5-a]pyrimidin-5-yl)-1-methoxycyclohexane-carboxylic acid]
1 to 100 | 1000 to 2000 | – | – | CO[C@]1(C(=O)O)CC[C@@H](c2nc3c(-c4cnc5ccc(F)cc5c4)cnn3c(N)c2Br)CC1 [Compound 33, (1R,4R)-4-(7-amino-6-bromo-3-(6-fluoroquinolin-3-yl)pyrazolo[1,5-a]pyrimidin-5-yl)-1-methoxycyclohexane-carboxylic acid]
1 to 100 | 100 to 1000 | – | – | CO[C@]1(C(=O)O)CC[C@H](c2nc3c(-c4cnc5ccc(F)cc5c4)cnn3c(N)c2C(C)=O)CC1 [Compound 38, (1S,4S)-4-(6-acetyl-7-amino-3-(6-fluoroquinolin-3-yl)pyrazolo[1,5-a]pyrimidin-5-yl)-1-methoxycyclohexane-carboxylic acid]
1 to 100 | 100 to 1000 | – | – | CO[C@]1(C(=O)O)CC[C@@H](c2nc3c(-c4cnc5ccc(F)cc5c4)cnn3c(N)c2C(C)=O)CC1 [Compound 39, (1R,4R)-4-(6-acetyl-7-amino-3-(6-fluoroquinolin-3-yl)pyrazolo[1,5-a]pyrimidin-5-yl)-1-methoxycyclohexane-carboxylic acid]
1 to 100 | 5000 to 15000 | – | – | COCCO[C@]1(C(=O)O)CC[C@H](c2nc3c(-c4cnn(-c5ccccc5)c4)cnn3c(N)c2C(C)=O)CC1 [Compound 54, (1S,4S)-4-(6-acetyl-7-amino-3-(1-phenyl-1H-pyrazol-4-yl)pyrazolo[1,5-a]pyrimidin-5-yl)-1-(2-methoxyethoxy)cyclohexanecarboxylic acid]

Further lines, the compound ahead of its results:

Compound | IC50 (human mTOR enzyme; rated class) [nM] | IC50 ([1]; rated class) [nM] | IC50 (human mTOR enzyme; numeric value) [nM] | IC50 ([1]; numeric value) [nM]
CS[C@]1(C(=O)O)CC[C@H](c2nc3c(-c4cnn(-c5ccccc5)c4)cnn3c(N)c2Br)CC1 [Compound 9, (1S,4S)-4-(7-amino-6-bromo-3-(1-phenyl-1H-pyrazol-4-yl)pyrazolo[1,5-a]pyrimidin-5-yl)-1-(methylthio)-cyclohexane-carboxylic acid] | 1 to 100 | 100 to 1000 | – | –
CS[C@]1(C(=O)O)CC[C@@H](c2nc3c(-c4cnn(-c5ccccc5)c4)cnn3c(N)c2Br)CC1 [Compound 10, (1R,4R)-4-(7-amino-6-bromo-3-(1-phenyl-1H-pyrazol-4-yl)pyrazolo[1,5-a]pyrimidin-5-yl)-1-(methylthio)-cyclohexane-carboxylic acid] | 1 to 100 | 2000 to 5000 | – | –
COCCOC[C@]1(C(=O)O)CC[C@H](c2nc3c(-c4ccc(-c5ccccc5)nc4)cnn3c(N)c2Br)CC1 [Compound 11, (1R,4R)-4-(7-amino-6-bromo-3-(6-phenylpyridin-3-yl)pyrazolo[1,5-a]pyrimidin-5-yl)-1-((2-methoxyethoxy)methyl)cyclohexane-carboxylic acid] | – | – | 4.61 | 2030
COCCOC[C@]1(C(=O)O)CC[C@@H](c2nc3c(-c4ccc(-c5ccccc5)nc4)cnn3c(N)c2Br)CC1 [Compound 12, (1S,4S)-4-(7-amino-6-bromo-3-(6-phenylpyridin-3-yl)pyrazolo[1,5-a]pyrimidin-5-yl)-1-((2-methoxyethoxy)methyl)cyclohexane-carboxylic acid] | 1 to 100 | 2000 to 5000 | – | –
COCCOC[C@]1(C(=O)O)CC[C@H](c2nc3c(-c4cnn(-c5ccccc5)c4)cnn3c(N)c2Br)CC1 [Compound 13, (1R,4R)-4-(7-amino-6-bromo-3-(1-phenyl-1H-pyrazol-4-yl)pyrazolo[1,5-a]pyrimidin-5-yl)-1-((2-methoxyethoxy)methyl)cyclohexane-carboxylic acid] | 1 to 100 | 5000 to 15000 | – | –
COCCOC[C@]1(C(=O)O)CC[C@@H](c2nc3c(-c4cnn(-c5ccccc5)c4)cnn3c(N)c2Br)CC1 [Compound 14, (1S,4S)-4-(7-amino-6-bromo-3-(1-phenyl-1H-pyrazol-4-yl)pyrazolo[1,5-a]pyrimidin-5-yl)-1-((2-methoxyethoxy)methyl)cyclohexane-carboxylic acid] | 1 to 100 | 5000 to 15000 | – | –
CC(=O)c1c(N)n2ncc(-c3ccc(-c4ccccc4)nc3)c2nc1[C@H]1CC[C@](F)(C(=O)O)CC1 [Compound 16, (1S,4S)-(6-acetyl-7-amino-3-(6-phenylpyridin-3-yl)pyrazolo[1,5-a]pyrimidin-5-yl)-1-fluorocyclohexane-carboxylic acid] | 1 to 100 | 1000 to 2000 | – | –
CC(=O)c1c(N)n2ncc(-c3ccc(-c4ccccc4)nc3)c2nc1[C@H]1CC[C@@](F)(C(=O)O)CC1 [Compound 17, (1R,4R)-4-(6-acetyl-7-amino-3-(6-phenylpyridin-3-yl)pyrazolo[1,5-a]pyrimidin-5-yl)-1-fluorocyclohexane-carboxylic acid] | 1 to 100 | 100 to 1000 | – | –
COC[C@]1(C(=O)O)CC[C@@H](c2nc3c(-c4ccc(-c5ccccc5)nc4)cnn3c(N)c2C(C)=O)CC1 [Compound 19, (1S,4S)-4-(6-acetyl-7-amino-3-(6-phenylpyridin-3-yl)pyrazolo[1,5-a]pyrimidin-5-yl)-1-(methoxymethyl)-cyclohexane-carboxylic acid] | 1 to 100 | 100 to 1000 | – | –
COC[C@]1(C(=O)O)CC[C@@H](c2nc3c(-c4cnn(-c5ccccc5)c4)cnn3c(N)c2C(C)=O)CC1 [Compound 21, (1S,4S)-4-(6-acetyl-7-amino-3-(1-phenyl-1H-pyrazol-4-yl)pyrazolo[1,5-a]pyrimidin-5-yl)-1-(methoxymethyl)-cyclohexane-carboxylic acid] | 1 to 100 | 100 to 1000 | – | –
COC[C@]1(C(=O)O)CC[C@H](c2nc3c(-c4cnc5ccc(F)cc5c4)cnn3c(N)c2C(C)=O)CC1 [Compound 22, (1R,4R)-4-(6-acetyl-7-amino-3-(6-fluoroquinolin-3-yl)pyrazolo[1,5-a]pyrimidin-5-yl)-1-(methoxymethyl)-cyclohexane-carboxylic acid] | 1 to 100 | 100 to 1000 | – | –
COC[C@]1(C(=O)O)CC[C@@H](c2nc3c(-c4cnc5ccc(F)cc5c4)cnn3c(N)c2C(C)=O)CC1 [Compound 23, (1S,4S)-4-(6-acetyl-7-amino-3-(6-fluoroquinolin-3-yl)pyrazolo[1,5-a]pyrimidin-5-yl)-1-(methoxymethyl)-cyclohexane-carboxylic acid] | 1 to 100 | 2000 to 5000 | – | –
